{"source": "patent US7173063B1", "about": "“Topoisomerase poisons for the treatment of proliferative disorders” (Fred Hutchinson Cancer Research Center, priority 2000, dated 2007)", "test_system": "yeast Topo I", "experiment": "Toxicity in yeast overexpressing yeast Topo I (yTOP1) or ytop1-vac mutant", "assay_type": "cell-based", "from_the_text": "The strains are derived from the A364a genetic background, with the exception of BY4705, which is derived from the S288C background. Gene disruptions were generated by PCR fragment directed replacement (Baudin, et al., Nucleic Acids Research 21: 3329–30 (1993), Guldener, et al., Nucleic Acids Research 24: 2519–24 (1996)). Yeast overexpressing topoisomerase II was constructed by a PCR fragment directed promoter replacement of the topoisomerase II promoter with the yeast GPD promoter flanked upstream by the URA3 marker. All strains (except BY4705) bear the pleitropic drug sensitizing mutations erg6, pdr1, and pdr3 (Balzi, et al., Journal of Bioenergetics & Biomembranes 27: 71–6 (1995), Delaveau, et al, Molecular & General Genetics 244: 501–11 (1994), Gaber, et al., Molecular & Cellular Biology 9: 3447–56 (1989), Saunders, et al., Canadian Journal of Genetics & Cytology, 24: 493–503 (1982). Subik, et al, Current Genetics 10: 665–70 (1986)). The haploid yeast strain BY4705 (Brachmann, et al., Yeast 14: 115–32 (1998)) was used in the experiments described in FIG. 5. Plasmids expressing yeast or human topoisomerase I genes under the GAL promoter (Knab, et al., Journal of Biological Chemistry 268: 22322–30 (1993). Knab, et al., Journal of Biological Chemistry 270: 6141–8 (1995)) were transformed into BY4705 using standard procedures.\nYeast toxicity assays were performed essentially as follows: Exponentially growing cultures of the appropriate strains were diluted in synthetic complete media to a concentration of 7.4×10^4 cells/mL, and aliquots (135 μL) were transferred to each well of clear flat-bottomed 96 well plates. Compounds were added in duplicate or triplicate as 15 μL of the appropriate dilution in 5% DMSO. A 15 μL portion of 5% DMSO was added to control wells. […] Cell growth (OD660) in treated wells was plotted as a percentage of the growth in at least four averaged solvent control wells for the same strain. Camptothecin sodium salt (camptothecin Na) was the agent used in all yeast assays as standard.\nIn this regard, the sensitivity of yeast strains overexpressing either human or yeast topoisomerase I genes (hTOP1 or yTOP1, respectively) under the control of the inducible GAL promoter (see, for example, Knab, et al., Journal of Biological Chemistry 268: 22322–30 (1993); and Knab, et al., Journal of Biological Chemistry 270: 6141–8 (1995)) were used. Additionally, the sensitivity of yeast overexpressing the Topo I-VAC mutant enzyme, containing two amino acid substitutions (htop1-vac and ytop1-vac) that render topoisomerase I insensitive to the action of camptothecin were also examined (see, for example, Knab, et al., Journal of Biological Chemistry 268: 22322–30 (1993); and Knab, et al., Journal of Biological Chemistry 270: 6141–8 (1995)).", "data": [{"compound": "O=c1c(Cl)c(Cl)cnn1CCCl", "note": "[compound IIa]", "values": [{"measurement": "toxicity in yeast overexpressing yTOP1-vac compared to vector control, cell survival by colony formation", "setting": "colony formation after treatment", "value": "is accentuated"}, {"measurement": "effect of ytop1-vac (camptothecin-resistant mutant) overexpression on toxicity", "setting": "relative OD660", "value": "effective with both yTOP1 and ytop1-vac"}]}]}
